Reference: article PMC5064445 (ACS infectious diseases, 2015)

Columns and labels:
HeLa cells = assay: Cytotoxicity assay; format: cell-based, human; details: up to 500 μM; 24 h incubation
HEK 293 cells = assay: Cytotoxicity assay; format: cell-based, human; details: up to 500 μM; 24 h incubation
NDM-1 = NDM-1 (Klebsiella pneumoniae, UniProt C7C422); assay: Inhibition of NDM-1-catalyzed imipenem hydrolysis; format: biochemical; details: relative to L-CS319
NDM-1, sequence (C7C422 39-270 limits assumed): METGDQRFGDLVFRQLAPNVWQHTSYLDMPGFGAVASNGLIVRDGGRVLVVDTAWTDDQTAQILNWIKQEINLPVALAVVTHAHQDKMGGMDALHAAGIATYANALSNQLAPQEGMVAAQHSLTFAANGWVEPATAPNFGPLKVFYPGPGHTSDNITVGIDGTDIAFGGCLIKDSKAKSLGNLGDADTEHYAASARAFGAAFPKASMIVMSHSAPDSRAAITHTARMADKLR

Row | SMILES | toxic effects against HeLa cells (HeLa cells) | toxic effects against Hek 293 cells (HEK 293 cells) | times less active than L-CS319 (in vitro NDM-1 inhibition) (NDM-1) [times]
1 | O=C(O)[C@@H]1CS[C@H]2CS[C@H](CS)N21 [L-CS319, (2R,5S,8R)-8-Carboxylate-2-mercaptomethyl-1-aza-3,6-dithiobicyclo[3.3.0]octane] | did not show toxic effects | did not show toxic effects | –
2 | CC1(C)S[C@@H]2CS[C@@H](CS)N2[C@H]1C(=O)O [D-VC26, (2S,5R,8S)-2-Mercaptomethyl-7-dimethyl-8-carboxylate-1-aza-3,6-dithiobicyclo[3.3.0]octane] | – | – | ~2
